From patent US8623990B2, “Polyester resin composition” (FUJIFILM Corporation, priority 2010, dated 2014)

Test: Measurement of pKa by absorption spectrum on addition of perchloric acid
Format: physicochemical
Conditions: in acetonitrile, 70% perchloric acid (solvent: acetic acid) added dropwise; proton adduct at nitrogen of triazine ring
Method: Compound (2) was dissolved in acetonitrile to give an absorbance of 1 and to this solution, 70% perchloric acid (solvent: acetic acid) was added dropwise, thereby varying the pH. At this time, the absorption spectrum of solution was measured and based on the absorbance at λmax, the proportions of a triazine-free form and a proton adduct were calculated at each pH. From the point at which these values became equal, the pKa value was determined. Here, the triazine-free form indicates Compound (2) itself, and the proton adduct indicates a compound resulting from addition of a proton to the nitrogen atom of triazine ring of Compound (2). Compounds (21), (24), (120), (m-2), (m-3), (m-4), (m-21), (m-31), (m-20) and (m-1), and as comparative compounds, (Example A1) and (Example A2) were determined for the pKa value in the same manner. The absorption spectrum was measured using a spectrophotometer, UV-3600 (trade name), manufactured by Shimadzu Corporation, and the pH was measured using a pH meter, HM60G (trade name), manufactured by To a Denpa Kogyo. Incidentally, the absorbance is a value measured at the maximum absorption wavelength of each compound.

pKa | SMILES
-5 | CCC(C)CCCCCC(CCCC(C)CC)COC(=O)c1ccc(-c2nc(-c3ccccc3O)nc(-c3ccccc3O)n2)cc1 (stereo not shown) [(24)]
-5 | CC(CCOC(=O)c1ccc(-c2nc(-c3ccccc3O)nc(-c3ccccc3O)n2)cc1)CC(C)(C)C (stereo not shown) [(120)]
-5 | Oc1ccccc1-c1nc(-c2cccc(Cl)c2)nc(-c2ccccc2O)n1 [(m-4)]
-5 | CCCCC(CC)COC(=O)c1ccc(-c2nc(-c3ccccc3O)nc(-c3ccccc3O)n2)cc1 (stereo not shown) [Compound (21)]
